Laboratory results reported in PMC6514962, “The Impact of O-Glycosylation on Cyanidin Interaction with RBCs and HMEC-1 Cells—Structure–Activity Relationships” (International Journal of Molecular Sciences, 2019).

Columns and labels:
HMEC-1 cells [1] = test: AAPH-stimulated intracellular ROS generation, H2DCF-DA assay; format: cell-based, human; conditions: for inhibitory activity on AAPH-induced intracellular ROS: HMEC-1, throughout the used range of concentrations (50-100 µM); for intracellular ROS level in comparison with control AAPH-oxidized cells: HMEC-1 pretreated 24 h with 50 to 75 µM, then AAPH 24 h
Method: (§1) The impact of investigated compounds on the level of intracellular reactive oxygen species and their ability to inhibit AAPH-stimulated intracellular ROS generation were assessed using a H2DCF-DA probe. Non-fluorescent H2DCF-DA is hydrolyzed intracellularly to form 2′,7′-dichlorodihydrofluorescein, which is oxidized by reactive oxygen species to the fluorescent 2′,7′-dichlorofluorescein. ROS production was estimated in HMEC-1 cells seeded on 96-well plates (5 × 10^3/well) and cultured for 12 to 24 h. After that time, the compounds were added at appropriate concentrations. The incubation was continued for another 24 h and 48 h at 37 °C under 5% CO2. In the case of AAPH-simulated ROS generation, the cells were incubated with extracts for 24 h. After incubation, the AAPH dissolved in culture medium was added to each well at the final concentration of 7.5 mM and incubated for the next 24 h. After that time, the cell monolayers were rinsed with HBSS containing 1% albumin and 5 µM of the fluorescence probe, 2′,7′-dichlorodihydrofluorescein diacetate (H2DCF-DA), was added. Immediately and after 0.5 h, 1 h, and 2 h incubation in the dark in standard conditions, the fluorescence was measured at λex = 485 nm and λem = 538 nm.
(§2) In the next step, DNA content was determined. For this purpose, after measurements, the cells were frozen at −70 °C. Next, the cells were thawed and re-frozen after the addition of […] of distilled water/well. Then, the cells were thawed again. After that, 5 µM of RNase was added to each well and incubated for 30 min in the dark at 37 °C. Next, 50 µL of 2.5 µM propidium iodide was added to the cells and incubated for 5 min in the same conditions. The fluorescence intensity of PI was measured at λex = 355 nm and λem = 620 nm. The rate of ROS generation was calculated according to the formula: (1) Rate of ROS=IFe1/IFe2/IFc1/IFc2⋅100% where IFe1 and IFe2 are fluorescence intensities of H2DCF-DA and PI in compound-modified or compound-modified and AAPH-oxidized cells, and IFc1 and IFc2 are fluorescence intensities of H2DCF-DA and PI in control or AAPH-oxidized control cells.

[2] = viability of HMEC-1 cells, XTT and Hoechst 33342 assays; format: cell-based, human; conditions: human, HMEC-1 cells, HMEC-1, 100 µM, % of control, read-out: cell viability (XTT and Hoechst assay)
Method: (§3) The effect of compounds on the viability of HMEC-1 cells was assessed by XTT (2,3-bis-(2-methoxy-4-nitro-5-sulfophenyl)-2H-tetrazolium-5-carboxanilide) and Hoechst 33342 assays. Briefly, 5 × 10^3 cells in 100 µL of the appropriate growth medium were plated in 96-well flat bottom clear microplates and cultured for 24 h at 37 °C in a humidified 5% CO2 incubator to ensure their logarithmic growth. […] A corresponding volume of 0.5% ethanol was added to the control wells. In parallel experiments, some of the cells were additionally incubated with doxorubicin in a concentration of 0.5 µM (a cytotoxic compound usually used as an anticancer drug). After incubation, the medium in the wells was aspirated, the cell monolayers were rinsed twice with pre-warmed (37 °C) PBS, and the cells were allowed to grow for an additional 48 h. After incubation, during the XTT assay, medium was removed by aspiration and 50 µL of XTT/PMS solution (10 µL of 10 mM PMS + 4 mL of 4 mg/mL XTT solution) was added to cells. Cells were incubated in the dark for 2 h (37 °C, 5% CO2). After incubation, the absorbance of the samples was read at 450 nm and 690 nm using an Epoch Microplate Spectrophotometer, BioTek Instruments, Inc., Winooski, Vermont, USA. The fraction of surviving treated cells was presented as a percentage of viable control (untreated) cells taken as 100%. In the Hoechst test, after incubation of cells with cyanidin and its glycosides, the medium was removed and the cells were washed twice with HBSS buffer containing 1% bovine serum albumin and frozen at −70 °C. Next, the cells were thawed at room temperature (RT) and re-frozen after the addition of […] of distilled water. After thawing the plates at room temperature, 100 µL of HVAB solution (0.5% Hoechst in TNE solution containing 2 M NaCl, 1 mM EDTA, 10 mM Tris-HCl, pH 7.4) were added to each well. Next, cells were incubated for 15 min in the dark at 37 °C, mixed, and the fluorescence intensity of the probe was measured at 355 and 460 nm for excitation and emission, respectively (Fluoroskan Ascent FL, Thermo Scientific, Waltham, MA, USA). Cell viability was calculated as the ratio of the fluorescence intensity of the Hoechst 33342 probe for compound-modified to -unmodified cells and expressed as a percentage.

HMEC-1 cells [3] = test: as above; format: cell-based, human; conditions: 48 h; for viability of endothelial cells compared with the control: HMEC-1, 100 µM, p < 0.01, both methods; for cytotoxicity: HMEC-1, 10-100 µM
Method: as §3

[4] = test system: MCF-7, HuH-7, HepG2, Caco-2, and HUVEC; set-up: method as in doi:10.3136/fstr.17.515; conditions: cited from earlier work
HMEC-1 cells [5] = test: intracellular ROS generation in non-oxidized cells, H2DCF-DA assay; format: cell-based, human
Method: as §1, §2

erythrocytes (RBCs) [6] = test: SEM assay of the shapes of erythrocytes; format: cell-based, pig; conditions: 100 µM, 1 h
Method: The effect of compounds on the shape of erythrocytes was investigated using a scanning electron microscope (SEM). […] Hematocrit concentration of the erythrocytes in the modification solution was 2%, the modification lasting 1 h at 37 °C. After modification, the erythrocytes where fixed for 48 h in a 2.5% solution of glutaraldehyde. After that, the preparations were washed in phosphate buffer for 20 min, and then the material was dehydrated in a rising series of acetone concentrations (30%, 50%, 60%, 70%, 80%, 90%, and 100%). Each sample was washed for 15 min in an appropriate concentration, the material remaining in pure acetone for 30 min. Next, the erythrocytes were dried for 12 h at room temperature. Erythrocytes thus prepared were deposited on object stages and subjected to x-ray microanalysis by means of an x-ray analyzer, Bruker AXS Quantax, collaborating with the ESPRIT ver. 1.8.2. software. Next, the samples were coated with gold using a Scancoat 6 (Edwards, London) sprinkler. The material ultrastructure was analyzed using a scanning microscope (EVO LS15 ZEISS) with an SE1 detector, under high vacuum and accelerating voltage, acceleration voltage (EHT) = 20 kV. Individual forms of erythrocyte cells were ascribed morphological indices according to the Bessis scale, which for stomatocytes assume negative values from −1 to −4, and for echinocytes from 1 to 4.

[7] = test system: MCF-7 breast cancer cells; conditions: cited from earlier work
erythrocytes (RBCs) [8] = test: protection of erythrocytes against AAPH-induced hemolysis; format: cell-based, pig; conditions: for level of RBCs' protection relative to CR and CDG: compared with CR and CDG
Method: Upon removal from plasma, the erythrocytes (RBCs) were washed four times in phosphate solution (pH 7.4) and then incubated in the same solution, but containing appropriate amounts of the compounds studied. The modification was conducted at 37 °C for 1 h, each 1 mL sample containing an RBC suspension of 1.2% hematocrit and 1 to 100 µM of compounds, stirred continuously. After the modification, 2 mL of phosphate buffer were added and samples were centrifuged, and the supernatant assayed for hemoglobin content using a spectrophotometer (Specord 40, Analytik Jena) at the 540 nm wavelength. To test the effect of compounds on hemolysis inducted by AAPH, RBCs were pre-incubated with varying concentrations of compounds at 37 °C for 1 h. Hemolysis of RBCs was carried out by mixing 3% suspension of RBCs (unmodified or modified by 2 to 20 µM of the compounds) in phosphate buffer with AAPH solution (final concentration 120 mM). This reaction mixture was incubated for 3 h at 37 °C. After incubation, samples were centrifuged for 15 min (2000× g, RT). The extent of hemolysis was determined spectrophotometrically by measuring the absorbance of the supernatant at 540 nm. Hemoglobin concentration in the supernatant, expressed as a percentage of the hemoglobin concentration in the supernatant of totally hemolyzed cells, was assumed as the measure of the extent of hemolysis.

renal cell carcinoma = test system: renal cell carcinoma; set-up: method as in PMID 29742507; conditions: cited from earlier work
[9] = test system: HER2 (breast cancer), GBM (glioblastoma), and human monocytic leukemia; set-up: method as in PMID 15080622, PMID 24312561, PMID 28867321; conditions: cancer cells, interrupting the G2-M phase; cited from earlier work
RAW 264.7 cells = test system: RAW 264.7 cells; set-up: method as in doi:10.1007/s10068-014-0279-x; conditions: 100 to 200 µg/mL; cited from earlier work
macrophages = test system: macrophages; set-up: method as in doi:10.1007/s10068-014-0279-x; conditions: cited from earlier work
[10] = set-up: method as in doi:10.1007/s10068-014-0279-x; conditions: cited from earlier work
[11] = test system: human peripheral blood mononuclear cells; set-up: method as in PMID 17360708; conditions: cited from earlier work
HL-60 cells = test system: HL-60 cells; set-up: method as in PMID 17360708; conditions: by the accumulation of peroxides; cited from earlier work

CC(C)(N=NC(C)(C)C(=N)N)C(=N)N.Cl.Cl [AAPH, 2,2′-azobis(2-amidinopropane) dihydrochloride, reference compound]
increase in the ROS level (HMEC-1 cells [1]; HMEC-1, 24 h incubation with AAPH (7.5 mM), 37 °C): about 60%

Oc1cc(O)c2cc(O)c(-c3ccc(O)c(O)c3)[o+]c2c1 [C, Cyanidin]
viability at 48 h, 100 µM [2]: 65 to 80%
viability of endothelial cells compared with the control (HMEC-1 cells [3]): decreased the viability
intracellular ROS levels [4]: decreased
inhibitory activity on AAPH-induced intracellular ROS (HMEC-1 cells [1]): does not cause any inhibitory activity
intracellular ROS level compared with control cells (HMEC-1 cells [5]; HMEC-1, 24 h, 50-100 µM): significant decrease
intracellular ROS level compared with control cells (HMEC-1 cells [5]; HMEC-1, 48 h, 50-100 µM): decreased
morphological index of induced echinocytes (Bessis scale) (erythrocytes (RBCs) [6]): +4
cell proliferation and apoptosis [7]: inhibition of cell proliferation and increased apoptosis
antioxidant activity compared with CG, CA, and CGA (erythrocytes (RBCs) [8]): did not observe any significant differences
percentage of apoptotic cells (renal cell carcinoma; 48 h at 0, 25, 50, and 100 μM): gradually increased
cell cycle arrest (renal cell carcinoma; independently of the concentration): induced cell cycle arrest

Oc1cc(O)c2cc(OC3OCC(O)C(O)C3O)c(-c3ccc(O)c(O)c3)[o+]c2c1 (stereo not drawn) [CA, cyanidin-3-O-arabinoside]
viability at 48 h, 100 µM [2]: 60 to 85%
viability of endothelial cells compared with the control (HMEC-1 cells [3]): decreased the viability
intracellular ROS level in comparison with control AAPH-oxidized cells (HMEC-1 cells [1]): significant decrease
intracellular ROS level compared with control cells (HMEC-1 cells [5]; HMEC-1, 24 h, 50-100 µM): significant decrease
intracellular ROS level compared with control cells (HMEC-1 cells [5]; HMEC-1, 48 h, 50-100 µM): decreased
morphological index of induced echinocytes (Bessis scale) (erythrocytes (RBCs) [6]): +2
level of RBCs' protection relative to CR and CDG (erythrocytes (RBCs) [8]): better protection

OCC1OC(Oc2cc3c(OC4OC(CO)C(O)C(O)C4O)cc(O)cc3[o+]c2-c2ccc(O)c(O)c2)C(O)C(O)C1O (stereo not drawn) [CDG, cyanidin-3-5-O-diglucoside]
cytotoxicity (HMEC-1 cells [3]): no cytotoxicity
protective effect against AAPH-induced oxidative stress (HMEC-1 cells [1]; HMEC-1, 100 µM): protective effect
inhibitory activity on AAPH-induced intracellular ROS (HMEC-1 cells [1]): strong inhibitory action
intracellular ROS level in comparison with control AAPH-oxidized cells (HMEC-1 cells [1]): significant decrease
intracellular ROS level compared with control cells (HMEC-1 cells [5]; HMEC-1, 24 h, 50-100 µM): significant decrease
intracellular ROS level compared with control cells (HMEC-1 cells [5]; HMEC-1, 48 h, 50-100 µM): decreased
morphological index of induced echinocytes (Bessis scale) (erythrocytes (RBCs) [6]): +1

OCC1OC(Oc2cc3c(O)cc(O)cc3[o+]c2-c2ccc(O)c(O)c2)C(O)C(O)C1O (stereo not drawn) [CG, cyanidin-3-O-glucoside]
cytotoxicity (HMEC-1 cells [3]): no cytotoxicity
cytotoxic effect (apoptosis) [9]: inducing apoptosis
cell viability compared with control cells (RAW 264.7 cells): significantly decreased
intracellular ROS levels [4]: did not
protective effect against H2O2-induced cytotoxicity compared with CR (macrophages): stronger protective effect
nitrite scavenging activity compared with CR [10]: higher
intracellular ROS level in comparison with control AAPH-oxidized cells (HMEC-1 cells [1]): significant decrease
intracellular ROS level compared with control cells (HMEC-1 cells [5]; HMEC-1, 24 h, 50-100 µM): significant decrease
intracellular ROS level compared with control cells (HMEC-1 cells [5]; HMEC-1, 48 h, 100 µM): no significant difference
level of RBCs' protection relative to CR and CDG (erythrocytes (RBCs) [8]): better protection

OCC1OC(Oc2cc3c(O)cc(O)cc3[o+]c2-c2ccc(O)c(O)c2)C(O)C(O)C1O (stereo not drawn) [CGA, cyanidin-3-O-galactoside]
intracellular ROS level compared with control cells (HMEC-1 cells [5]; HMEC-1, 48 h, 50-100 µM): decreased

CC1OC(OCC2OC(Oc3cc4c(O)cc(O)cc4[o+]c3-c3ccc(O)c(O)c3)C(O)C(O)C2O)C(O)C(O)C1O (stereo not drawn) [CR, cyanidin-3-O-rutinoside]
cytotoxicity (HMEC-1 cells [3]): no cytotoxicity
cell viability compared with control cells (RAW 264.7 cells): significantly decreased
toxicity [11]: relatively low toxicity
inhibitory activity on AAPH-induced intracellular ROS (HMEC-1 cells [1]): does not cause any inhibitory activity
apoptosis (HL-60 cells): induce apoptosis
intracellular ROS level compared with control cells (HMEC-1 cells [5]; HMEC-1, 24 h, 50-100 µM): did not differ
intracellular ROS level compared with control cells (HMEC-1 cells [5]; HMEC-1, 48 h, 50-100 µM): no significant difference
morphological index of induced echinocytes (Bessis scale) (erythrocytes (RBCs) [6]): +1
